Earlier results in patent US20220047856A1, “HYDROGEL FOR IN-VIVO DIRECTIONAL RELEASE OF MEDICATION” (UMC Utrecht Holding B.V., priority 2018, published 2022).

Settings: local anaesthetic, conventional bupivacaine

Which “duration of its effect” value does the source give for CCCCN1CCCCC1C(=O)Nc1c(C)cccc1C (stereo not shown) [Bupi, Bupivacaine] here?
Its value is “approx. 8 hours”.
